Experimental data: article PMC7397156, “Cytotoxic Phenanthrene, Dihydrophenanthrene, and Dihydrostilbene Derivatives and Other Aromatic Compounds from Combretum laxum” (Molecules, 2020)

Test system: not listed separately
Assay: DPPH-radical-scavenging assay
Details: 30 min, absorbance at 515 nm; mean ± SD, three independent experiments; read-out: Radical-scavenging activity against DPPH, IC50
Method: The radical-scavenging activities of compounds 1–6 were determined using DPPH (a stable free radical), employing the method of microdilution in 96-well microplates described by Zhang et al. and Yamaguchi et al., with some modifications. The assays were performed in triplicate, using caffeic acid as a standard compound and a DPPH solution in EtOH (200 µM) as a negative control. Solutions of samples in EtOH at 200 µM were serially diluted to 100, 50, 25, 12.5, and 6.25 µM. Each solution (100 µL) was mixed with 100 µL of DPPH solution. The samples were allowed to stand at room temperature in the dark for 30 min, after which their absorbances were recorded at 515 nm. The ability of test materials to scavenge DPPH radicals was calculated as follows: DPPH scavenging effect (%) = 100 (Acontrol − Asample)/Acontrol. Radical-scavenging activities were assessed on the basis of their IC50 values determined by linear regression.
Work on `O=C(O)/C=C/c1ccc(O)c(O)c1` [Caffeic acid, caffeic acid, reference compound] yielded an IC50 of 10.9 ± 0.1 µM.
With `COc1cc(CCc2cc(OC)c(OC)c(Oc3cc(OC)c(OC)c(OC)c3)c2)ccc1O` [Compound 1, 4′-Hydroxy-3,3′,4-trimethoxy-5-(3,4,5-trimethoxyphenoxy)-bibenzyl] the IC50 was 56.5 ± 0.3 µM.
For `COc1cc2c(ccc3cc(O)cc(OC)c32)cc1O` [Compound 2, 2,7-Dihydroxy-4,6-dimethoxyphenanthrene], the IC50 was 20.4 ± 0.3 µM.
`COc1cc2ccc3cc(O)c(OC)c(OC)c3c2cc1O` [Compound 3, 2,6-Dihydroxy-3,4,7-trimethoxyphenanthrene] gave an IC50 of 45.6 ± 0.3 µM.
`COc1cc2c(cc1O)CCc1cc(O)cc(OC)c1-2` [Compound 4, 2,7-dihydroxy-4,6-dimethoxy-9,10-dihydrophenanthrene] showed an IC50 of 55.6 ± 0.4 µM.
`COc1cc2c(cc1O)-c1c(cc(O)c(OC)c1OC)CC2` [Compound 5, 2,6-Dihydroxy-3,4,7-trimethoxy-9,10-dihydrophenanthrene] gave an IC50 of 32.9 ± 0.3 µM.
For `COc1cc2c(cc1O)-c1c(cc(O)cc1OC)CC2` [Compound 6, 2,6-dihydroxy-4,7-dimethoxy-9,10-dihydrophenanthrene], the IC50 was 17.7 ± 0.3 µM.

Test system: MCF-7
Assay: SRB cytotoxicity assay, MCF-7 breast carcinoma cells
Details: Homo sapiens, MCF7, read-out: Cytotoxicity IC50, MCF-7
Method: (§2) To this end, a sulforhodamine B (SRB; purity ≥ 97%; Sigma, St. Louis, MO, USA) assay was performed, as described elsewhere [53, 54]. […] IC50 values were calculated from the differences in absorbance readings at 540 nm in untreated (negative control) and treated cells on a SpectraMax 190 microplate reader (Molecular Devices, San Jose, CA, USA) [53] through nonlinear regression analysis, using Origin 6.0 software (OriginLab, Northampton, MA, USA), and growth percentages were calculated as described elsewhere [53]. The data presented are the mean ± standard deviation of at least three independent cell preparations made in triplicate.
With `COc1cc(CCc2cc(OC)c(OC)c(Oc3cc(OC)c(OC)c(OC)c3)c2)ccc1O` [Compound 1, 4′-Hydroxy-3,3′,4-trimethoxy-5-(3,4,5-trimethoxyphenoxy)-bibenzyl] the IC50 was 72.7 ± 4.87 µM.
With `COc1cc2c(ccc3cc(O)cc(OC)c32)cc1O` [Compound 2, 2,7-Dihydroxy-4,6-dimethoxyphenanthrene] the IC50 was 118 ± 9.29 µM.
`COc1cc2ccc3cc(O)c(OC)c(OC)c3c2cc1O` [Compound 3, 2,6-Dihydroxy-3,4,7-trimethoxyphenanthrene] gave an IC50 of 226 ± 5.09 µM.
For `COc1cc2c(cc1O)CCc1cc(O)cc(OC)c1-2` [Compound 4, 2,7-dihydroxy-4,6-dimethoxy-9,10-dihydrophenanthrene], the IC50 was 47 ± 5.55 µM.
`COc1cc2c(cc1O)-c1c(cc(O)c(OC)c1OC)CC2` [Compound 5, 2,6-Dihydroxy-3,4,7-trimethoxy-9,10-dihydrophenanthrene] showed an IC50 of 42 ± 9.33 µM.
Compound `COc1cc2c(cc1O)-c1c(cc(O)cc1OC)CC2` [Compound 6, 2,6-dihydroxy-4,7-dimethoxy-9,10-dihydrophenanthrene] has an IC50 of 160 ± 8.21 µM.

Test system: 786-0
Assay: SRB cytotoxicity assay, 786-0 kidney carcinoma cells
Details: Homo sapiens, 786-0, read-out: Cytotoxicity IC50, 786-0
Method: as §2
Work on `COc1cc(CCc2cc(OC)c(OC)c(Oc3cc(OC)c(OC)c(OC)c3)c2)ccc1O` [Compound 1, 4′-Hydroxy-3,3′,4-trimethoxy-5-(3,4,5-trimethoxyphenoxy)-bibenzyl] yielded an IC50 of 113 ± 2.89 µM.
Work on `COc1cc2c(ccc3cc(O)cc(OC)c32)cc1O` [Compound 2, 2,7-Dihydroxy-4,6-dimethoxyphenanthrene] yielded an IC50 of 73.3 ± 7.7 µM.
In the case of `COc1cc2ccc3cc(O)c(OC)c(OC)c3c2cc1O` [Compound 3, 2,6-Dihydroxy-3,4,7-trimethoxyphenanthrene], the IC50 is reported as 64.3 ± 9.62 µM.
In the case of `COc1cc2c(cc1O)CCc1cc(O)cc(OC)c1-2` [Compound 4, 2,7-dihydroxy-4,6-dimethoxy-9,10-dihydrophenanthrene], the IC50 is reported as 57 ± 9.29 µM.
For `COc1cc2c(cc1O)-c1c(cc(O)c(OC)c1OC)CC2` [Compound 5, 2,6-Dihydroxy-3,4,7-trimethoxy-9,10-dihydrophenanthrene], the IC50 was 199 ± 6.75 µM.
Compound `COc1cc2c(cc1O)-c1c(cc(O)cc1OC)CC2` [Compound 6, 2,6-dihydroxy-4,7-dimethoxy-9,10-dihydrophenanthrene] has an IC50 of 257 ± 6.51 µM.

Test system: Hep2
Assay: SRB cytotoxicity assay, Hep2 larynx carcinoma cells
Assay type: cell-based
Details: Homo sapiens, HEp-2, mean ± SD, three independent experiments
`COc1cc(CCc2cc(OC)c(OC)c(Oc3cc(OC)c(OC)c(OC)c3)c2)ccc1O` [Compound 1, 4′-Hydroxy-3,3′,4-trimethoxy-5-(3,4,5-trimethoxyphenoxy)-bibenzyl] showed an IC50 of 218 ± 2.52 µM.
`COc1cc2c(ccc3cc(O)cc(OC)c32)cc1O` [Compound 2, 2,7-Dihydroxy-4,6-dimethoxyphenanthrene] showed an IC50 of over 250 µM.
For `COc1cc2c(cc1O)CCc1cc(O)cc(OC)c1-2` [Compound 4, 2,7-dihydroxy-4,6-dimethoxy-9,10-dihydrophenanthrene], the IC50 was 208 ± 17.1 µM.
Work on `COc1cc2c(cc1O)-c1c(cc(O)c(OC)c1OC)CC2` [Compound 5, 2,6-Dihydroxy-3,4,7-trimethoxy-9,10-dihydrophenanthrene] yielded an IC50 of 223 ± 2.81 µM.
`COc1cc2c(cc1O)-c1c(cc(O)cc1OC)CC2` [Compound 6, 2,6-dihydroxy-4,7-dimethoxy-9,10-dihydrophenanthrene] gave an IC50 of 547.58 ± 0.11 µM.

Test system: NCI/ADR-RES
Assay: SRB cytotoxicity assay, NCI/ADR-RES ovary carcinoma cells, multidrug-resistant phenotype
Details: Homo sapiens, read-out: Cytotoxicity IC50, NCI/ADR-RES
Method: as §2
With `COc1cc(CCc2cc(OC)c(OC)c(Oc3cc(OC)c(OC)c(OC)c3)c2)ccc1O` [Compound 1, 4′-Hydroxy-3,3′,4-trimethoxy-5-(3,4,5-trimethoxyphenoxy)-bibenzyl] the IC50 was 32.1 ± 4.31 µM.
In the case of `COc1cc2c(ccc3cc(O)cc(OC)c32)cc1O` [Compound 2, 2,7-Dihydroxy-4,6-dimethoxyphenanthrene], the IC50 is reported as 84 ± 5.4 µM.
`COc1cc2ccc3cc(O)c(OC)c(OC)c3c2cc1O` [Compound 3, 2,6-Dihydroxy-3,4,7-trimethoxyphenanthrene] showed an IC50 of 117 ± 2.66 µM.
Compound `COc1cc2c(cc1O)CCc1cc(O)cc(OC)c1-2` [Compound 4, 2,7-dihydroxy-4,6-dimethoxy-9,10-dihydrophenanthrene] has an IC50 of 58.8 ± 2.33 µM.
`COc1cc2c(cc1O)-c1c(cc(O)c(OC)c1OC)CC2` [Compound 5, 2,6-Dihydroxy-3,4,7-trimethoxy-9,10-dihydrophenanthrene] gave an IC50 of 212 ± 14.1 µM.
`COc1cc2c(cc1O)-c1c(cc(O)cc1OC)CC2` [Compound 6, 2,6-dihydroxy-4,7-dimethoxy-9,10-dihydrophenanthrene] gave an IC50 of 303 ± 12.6 µM.

Test system: not listed separately
Assay: SRB cytotoxicity assay, VERO nonneoplastic cells
Assay type: cell-based, monkey
Details: monkey, VERO (monkey kidney) nonneoplastic cells; at 2.5 µg mL^−1
From the text: (§1) In addition, 4 inhibited the proliferation of UACC-62 and VERO cells in a dose-dependent manner.
For `COc1cc2c(cc1O)CCc1cc(O)cc(OC)c1-2` [Compound 4, 2,7-dihydroxy-4,6-dimethoxy-9,10-dihydrophenanthrene], the viability at 2.5 µg mL^−1 was about 100%.

Test system: VERO cells
Assay: SRB cytotoxicity assay, VERO nonneoplastic cells
Assay type: cell-based, monkey
Details: 0.25, 2.5 and 25 µg mL^−1; points above zero in growth curves (Figure 2)
From the text: as §1
With `COc1cc2c(cc1O)CCc1cc(O)cc(OC)c1-2` [Compound 4, 2,7-dihydroxy-4,6-dimethoxy-9,10-dihydrophenanthrene] the “Effect on VERO cell growth” value was “cytostatic (growth inhibition) effect”.

Same assay, conditions: Primates, Vero; SRB assay; read-out: IC50 on nontumor mammalian VERO cells
`COc1cc2c(cc1O)CCc1cc(O)cc(OC)c1-2` [Compound 4, 2,7-dihydroxy-4,6-dimethoxy-9,10-dihydrophenanthrene] gave an IC50 of 65.1 ± 4.51 µM.

Test system: UACC-62
Assay: SRB cytotoxicity assay, UACC-62 melanoma cells
Details: 0.25, 2.5 and 25 µg mL^−1; points above zero in growth curves (Figure 2)
Method: as §2
In the case of `COc1cc2c(cc1O)CCc1cc(O)cc(OC)c1-2` [Compound 4, 2,7-dihydroxy-4,6-dimethoxy-9,10-dihydrophenanthrene], the “Effect on UACC-62 cell growth” value is reported as “cytostatic (growth inhibition) effect”.

Same assay, conditions: Homo sapiens, UACC-62, read-out: Cytotoxicity IC50, UACC-62
In the case of `COc1cc2c(ccc3cc(O)cc(OC)c32)cc1O` [Compound 2, 2,7-Dihydroxy-4,6-dimethoxyphenanthrene], the IC50 is reported as over 250 µM.
For `COc1cc2ccc3cc(O)c(OC)c(OC)c3c2cc1O` [Compound 3, 2,6-Dihydroxy-3,4,7-trimethoxyphenanthrene], the IC50 was 247 ± 10.3 µM.
`COc1cc2c(cc1O)CCc1cc(O)cc(OC)c1-2` [Compound 4, 2,7-dihydroxy-4,6-dimethoxy-9,10-dihydrophenanthrene] gave an IC50 of 2.59 ± 0.11 µM.
`COc1cc2c(cc1O)-c1c(cc(O)c(OC)c1OC)CC2` [Compound 5, 2,6-Dihydroxy-3,4,7-trimethoxy-9,10-dihydrophenanthrene] gave an IC50 of 222 ± 3.04 µM.
`COc1cc2c(cc1O)-c1c(cc(O)cc1OC)CC2` [Compound 6, 2,6-dihydroxy-4,7-dimethoxy-9,10-dihydrophenanthrene] showed an IC50 of 268 ± 13.8 µM.

Same assay, conditions: points below zero in growth curves (Figure 2)
With `COc1cc2c(cc1O)CCc1cc(O)cc(OC)c1-2` [Compound 4, 2,7-dihydroxy-4,6-dimethoxy-9,10-dihydrophenanthrene] the “Concentration from which a cytocidal (cell death) effect is seen on UACC-62 cells” value was at least 2.5 µg/mL.
